# Test results: patent publication US6465007B1, “Transgene expression in polarized cells” (Genzyme Corporation, priority 1998, dated 2002)
# What was measured:
# [1] = test system: polarized NHBE cells; experiment: In vitro transfection with GL-67:pCF1-SEAP, secreted alkaline phosphatase in apical supernatant; type: cell-based, human
# Method: Prior to transfection, polarized NHBE cells on inserts were incubated in either Opti-MEM, Opti-MEM containing 0.1% EGTA, or in Ca^2+-free media (Gibco) in both sides of the insert for 30 min at 37° C. The cells were then washed 3 times with Opti-MEM, and incubated with unlabeled GL-67:pCF1-SEAP (40:53 μM) for 4 h at 37° C., after which they were washed 3 times with Opti-MEM. One ml of culture medium then was added to the outside of the insert (basal side) and 100 μl added to the inside of the insert (apical side). The supernatant from the apical side was collected on day 2 after transfection, heated at 65° C. for 1 h to denature endogenous alkaline phosphatases (Berger et al., Gene, 1988), and assayed in triplicate for secreted alkaline phosphatase (SEAP) activity using an alkaline phosphatase reagent (Sigma) and human placental alkaline phosphatase (Calbiochem, La Jolla, Calif.) as a standard.
# To inhibit NHBE cell proliferation, aphidicolin (0.5 μg/ml; Sigma) was added to culture medium on the basal side of the polarized NHBE cells for 18 h at 37° C. The cells were then transfected as described above except that the concentrations of cationic lipid and pDNA were 80 and 107 μM, respectively. After transfection, aphidicolin was present in the culture medium until the cells were harvested. […] Retinoic acid enhanced the inhibitory effect of aphidicolin on cell proliferation (Chou, R. H. et al., Cell & Tissue Kinetics, 18:387-97, 1985).
# [2] = test system: mouse trachea; experiment: Intranasal instillation of Ad2βgal-4, X-gal staining of airways; type: in vivo; details: for X-gal staining in the trachea: FIG. 4
# Method: Female BALB/c mice 9-12 weeks of age were purchased from Taconic (Germantown, N.Y.). In some groups, mice were instilled intranasally with 25 μl of a solution containing EGTA (pH 7.5), followed by 25 μl of 5% sucrose in PBS containing Adβgal-4 (2×10^8 IU). In other groups, mice were co-instilled with 25 μl of a solution prepared by mixing equal volumes of a 2× (4×10^8 IU/25 μl) Ad2βgal-4 solution in 10% sucrose with 2×EGTA prior to instillation.
# Cytochemical localization of Ogal expression in the trachea was observed using 5-bromo-4-chloro-3-indolyl-β-D-galactopyranoside (X-gal; Sigma). In brief, cannulated mouse lungs were fixed for 10 min by infusion of a fixing solution (2% paraformaldehyde and 0.2% glutaraldehyde in PBS). The lungs were then rinsed twice with 50 mM glycine in PBS, filled with X-gal solution, and stained overnight. Staining was stopped by transfering the samples into the fixing solution.
# Trachea with staining levels were defined on a scale of 0 to 3, 0 indicating no cells staining for βgal, and a value of 3 indicating a large number of cells positive for the transgene. To evaluate the effect of EGTA concentration on AdV-mediated gene transfer in the trachea, mice were pre-treated with various concentrations of EGTA 0.5 h before AdV instillation. In some animals, AdV and EGTA were co-instilled. To exclude the possibility that any observed enhancement of expression was due to a hyperosmotic effect of the EGTA solution, a 20% mannitol solution (osmolarity similar to 0.4M EGTA) was included as a control in both the pre-treatment and co-instillation models.
# [3] = test system: tight junctions; details: compared with EDTA; cited from earlier work
smiles,measurement,setting,value
"O=C(O)CN(CCOCCOCCN(CC(=O)O)CC(=O)O)CC(=O)O [EGTA, Ethylene glycol bis(B-aminoethyl ether) N,N,N′,N′-tetraacetic acid]",increase in SEAP expression,"[1]; 0.5 h pre-treatment, GL-67:pCF1-SEAP 40:53 μM 4 h, assayed after 48 h, FIG. 1",~55 fold
same,ability to transfect with cationic lipid:pDNA complexes,[1]; treatment of polarized normal human bronchial epithelial cells,significant enhancement
same,X-gal staining in the trachea,[2]; 0.4M pre-treatment group,most consistent and highest X-gal staining
same,X-gal staining in the trachea,"[2]; treated mice vs AdV alone, 2×10^8 IU",marked increase
same,"gene expression in trachea, primary bronchi and small airways (X-gal staining)",[2]; virus instilled 0.5 h after treatment,significantly enhanced
same,effectiveness at disrupting tight junctions,[3],more effective than EDTA
